# Data: US10980232B2, “Herbicidal composition comprising cinmethylin and pyroxasulfone” (BASF Agro B.V., priority 2015, dated 2021)
# Columns and labels:
# Assay type in all cases: in vivo
# Settings in all cases: 20 DAT
# [1] = test system: CHEAL (Chenopodium album); test: Greenhouse postemergence herbicidal activity, CHEAL
# Experimental: (§1) The test plants have been seeded, separately for each species, in plastic containers in sandy loamy soil containing 5% of organic matter.
# (§2) For the post emergence treatment, the plants were first grown to the 2 leaf station (GS 12). Here, the herbicidal compositions were suspended or emulsified in water as distribution medium and sprayed using finely distributing nozzels.
# (§3) The plants have been cultivated due to their individual requirements at 10-25° C. and 20-35° C. The plants were irrigated due to their necessity.
# (§4) The racemic mixture (±)-2-exo-(2-Methylbenzyloxy)-1-methyl-4-isopropyl-7-oxabicyclo[2.2.1]heptane was used as herbicide A and formulated as emulsifiable concentrates with an active ingredient concentration of 50 g/l, 100 g/l or 750 g/l respectively.
# (§5) Pyroxasulfone (herbicide B) was used as a water dispersible granule (85% WG).
# (§6) In the following experiments, the herbicidal activity for the individual herbicidal compositions (solo and mixture applications) was assessed 20 days after treatment (DAT).
# (§7) The evaluation for the damage on undesired weeds caused by the chemical compositions was carried out using a scale from 0 to 100%, compared to the untreated control plants. Here, 0 means no damage and 100 means complete destruction of the plants.
# (§8) E=X+Y−(X·Y/100) where X=effect in percent using herbicide A at an application rate a; • Y=effect in percent using herbicide B at application rate b; • E=expected effect (in %) of herbicide A+herbicide B at application rates a+b.
# (§9) The value E corresponds to the effect (plant damage or injury) which is to be expected if the activity of the individual compounds is additive. If the observed effect is higher than the value E calculated according to the Colby equation, a synergistic effect is present.
# [2] = test system: LOLMU (Lolium multiflorum); test: Greenhouse preemergence herbicidal activity, LOLMU
# Experimental: as §1
# (§10) The containers were irrigated gently to promote germination and growth and subsequently covered with transparent plastic hoods until the plants had rooted.
# as §3, §4, §5, §6, §7, §8, §9
# [3] = test system: ABUTH (Abutilon theoprasti); test: Greenhouse preemergence herbicidal activity, ABUTH
# Experimental: as §1, §10, §3, §4, §5, §6, §7, §8, §9
# [4] = test system: AMARE (Amaranthus retroflexus); test: Greenhouse preemergence herbicidal activity, AMARE
# Experimental: as §1, §10, §3, §4, §5, §6
# The evaluation for the damage on undesired weeds caused by the chemical compositions was carried out using a scale from 0 to 100%, compared to the untreated control plants. […]
# as §9
# [5] = test system: POLCO (Polygonum convolvulus); test: Greenhouse preemergence herbicidal activity, POLCO
# Experimental: as §1, §10, §3, §4, §5, §6, §7, §8, §9
# [6] = test system: ANTAR (Anthemis arvensis); test: Greenhouse preemergence herbicidal activity, ANTAR
# Experimental: as §1, §10, §3, §4, §5, §6, §7, §8, §9
# [7] = test system: ANTAR (Anthemis arvensis); test: Greenhouse postemergence herbicidal activity, ANTAR
# Experimental: as §1, §2, §3, §4, §5, §6, §7, §8, §9
# [8] = test system: CHEAL (Chenopodium album); test: Greenhouse preemergence herbicidal activity, CHEAL
# Experimental: as §1, §10, §3, §4, §5, §6, §7, §8, §9
# [9] = test system: LOLMU (Lolium multiflorum); test: Greenhouse postemergence herbicidal activity, LOLMU
# Experimental: as §1, §2, §3, §4, §5, §6, §7, §8, §9
# [10] = test system: AVEFA (Avena fatua); test: Greenhouse postemergence herbicidal activity, AVEFA
# Experimental: as §1, §2, §3, §4, §5, §6, §7, §8, §9
# [11] = test system: GERDI (Geranium dissectum); test: Greenhouse preemergence herbicidal activity, GERDI
# Experimental: as §1, §10, §3, §4, §5, §6, §7, §8, §9
# [12] = test system: AVEFA (Avena fatua); test: Greenhouse preemergence herbicidal activity, AVEFA
# Experimental: as §1, §10, §3, §4, §5, §6, §7, §8, §9
# [13] = test system: SORHA (Sorghum halepense); test: Greenhouse postemergence herbicidal activity, SORHA
# Experimental: as §1, §2, §3, §4, §5
# (§11) In the following experiments, the herbicidal activity for the individual herbicidal compositions (solo and mixture applications) was assessed 20 days after treatment (DAT). […]
# as §9
# [14] = test system: STEME (Stellaria media); test: Greenhouse postemergence herbicidal activity, STEME
# Experimental: as §1, §2, §3, §4, §5, §6, §7, §8, §9
# [15] = test system: POLCO (Polygonum convolvulus); test: Greenhouse postemergence herbicidal activity, POLCO
# Experimental: as §1, §2, §3, §4, §5, §11, §9
# [16] = test system: AMARE (Amaranthus retroflexus); test: Greenhouse postemergence herbicidal activity, AMARE
# Experimental: as §1, §2, §3, §4, §5, §11, §9
# [17] = test system: GALAP (Galium aparine); test: Greenhouse preemergence herbicidal activity, GALAP
# Experimental: as §1, §10, §3, §4, §5, §6, §7, §8, §9
# [18] = test system: STEME (Stellaria media); test: Greenhouse preemergence herbicidal activity, STEME
# Experimental: as §1, §10, §3, §4, §5, §6, §7, §8, §9
# [19] = pyroxasulfone solo 11.25 g ai/ha
# [20] = pyroxasulfone solo 22.5 g ai/ha
structure (smiles),measurement,setting,value
"Cc1ccccc1CO[C@@H]1C[C@@]2(C(C)C)CC[C@]1(C)O2 (racemic) [herbicide A, (±)-2-exo-(2-Methylbenzyloxy)-1-methyl-4-isopropyl-7-oxabicyclo[2.2.1]heptane]",herbicidal activity,[1]; herbicide A solo 62.5 g ai/ha,30%
same,herbicidal activity,[1]; herbicide A solo 87.5 g ai/ha,65%
same,herbicidal activity,[1]; herbicide A solo 125 g ai/ha,50%
same,herbicidal activity,[1]; herbicide A solo 175 g ai/ha,60%
same,herbicidal activity,[1]; herbicide A solo 500 g ai/ha,75%
same,herbicidal activity,[2]; herbicide A solo 25 g ai/ha,50%
same,herbicidal activity,[2]; herbicide A solo 37.5 g ai/ha,60%
same,herbicidal activity,[3]; herbicide A solo 37.5 g ai/ha,0%
same,herbicidal activity,[3]; herbicide A solo 75 g ai/ha,0%
same,herbicidal activity,[3]; herbicide A solo 150 g ai/ha,0%
same,herbicidal activity,[3]; herbicide A solo 300 g ai/ha,0%
same,herbicidal activity,[4]; herbicide A solo 25 g ai/ha,0%
same,herbicidal activity,[5]; herbicide A solo 37.5 g ai/ha,0%
same,herbicidal activity,[5]; herbicide A solo 50 g ai/ha,0%
same,herbicidal activity,[5]; herbicide A solo 75 g ai/ha,0%
same,herbicidal activity,[5]; herbicide A solo 100 g ai/ha,0%
same,herbicidal activity,[5]; herbicide A solo 200 g ai/ha,0%
same,herbicidal activity,[5]; herbicide A solo 300 g ai/ha,0%
same,herbicidal activity,[6]; herbicide A solo 25 g ai/ha,0%
same,herbicidal activity,[6]; herbicide A solo 37.5 g ai/ha,0%
same,herbicidal activity,[6]; herbicide A solo 50 g ai/ha,0%
same,herbicidal activity,[6]; herbicide A solo 75 g ai/ha,0%
same,herbicidal activity,[6]; herbicide A solo 100 g ai/ha,0%
same,herbicidal activity,[6]; herbicide A solo 150 g ai/ha,0%
same,herbicidal activity,[6]; herbicide A solo 200 g ai/ha,0%
same,herbicidal activity,[6]; herbicide A solo 300 g ai/ha,0%
same,herbicidal activity,[7]; herbicide A solo 62.5 g ai/ha,40%
same,herbicidal activity,[7]; herbicide A solo 175 g ai/ha,90%
same,herbicidal activity,[7]; herbicide A solo 250 g ai/ha,90%
same,herbicidal activity,[8]; herbicide A solo 25 g ai/ha,20%
same,herbicidal activity,[8]; herbicide A solo 37.5 g ai/ha,20%
same,herbicidal activity,[8]; herbicide A solo 50 g ai/ha,30%
same,herbicidal activity,[8]; herbicide A solo 75 g ai/ha,20%
same,herbicidal activity,[9]; herbicide A solo 43.75 g ai/ha,0%
same,herbicidal activity,[9]; herbicide A solo 62.5 g ai/ha,0%
same,herbicidal activity,[9]; herbicide A solo 87.5 g ai/ha,0%
same,herbicidal activity,[9]; herbicide A solo 125 g ai/ha,0%
same,herbicidal activity,[10]; herbicide A solo 43.75 g ai/ha,25%
same,herbicidal activity,[10]; herbicide A solo 87.5 g ai/ha,30%
same,herbicidal activity,[10]; herbicide A solo 125 g ai/ha,60%
same,herbicidal activity,[11]; herbicide A solo 50 g ai/ha,50%
same,herbicidal activity,[11]; herbicide A solo 100 g ai/ha,50%
same,herbicidal activity,[11]; herbicide A solo 150 g ai/ha,50%
same,herbicidal activity,[12]; herbicide A solo 37.5 g ai/ha,0%
same,herbicidal activity,[12]; herbicide A solo 50 g ai/ha,0%
same,herbicidal activity,[12]; herbicide A solo 75 g ai/ha,20%
same,herbicidal activity,[12]; herbicide A solo 150 g ai/ha,40%
same,herbicidal activity,[13]; herbicide A solo 62.5 g ai/ha,40%
same,herbicidal activity,[14]; herbicide A solo 43.75 g ai/ha,0%
same,herbicidal activity,[14]; herbicide A solo 62.5 g ai/ha,25%
same,herbicidal activity,[14]; herbicide A solo 125 g ai/ha,65%
same,herbicidal activity,[14]; herbicide A solo 175 g ai/ha,40%
same,herbicidal activity,[14]; herbicide A solo 250 g ai/ha,70%
same,herbicidal activity,[15]; herbicide A solo 250 g ai/ha,40%
same,herbicidal activity,[16]; herbicide A solo 250 g ai/ha,25%
same,herbicidal activity,[17]; herbicide A solo 25 g ai/ha,0%
same,herbicidal activity,[17]; herbicide A solo 50 g ai/ha,0%
same,herbicidal activity,[17]; herbicide A solo 200 g ai/ha,30%
same,herbicidal activity,[17]; herbicide A solo 300 g ai/ha,30%
same,herbicidal activity,[18]; herbicide A solo 25 g ai/ha,20%
same,herbicidal activity,[18]; herbicide A solo 37.5 g ai/ha,0%
same,herbicidal activity,[18]; herbicide A solo 50 g ai/ha,20%
same,herbicidal activity,[18]; herbicide A solo 75 g ai/ha,20%
"Cn1nc(C(F)(F)F)c(CS(=O)(=O)C2=NOC(C)(C)C2)c1OC(F)F [pyroxasulfone, 3-[5-(difluoromethoxy)-1-methyl-3-(trifluoromethyl)pyrazol-4-ylmethylsulfonyl]-4,5-dihydro-5,5-dimethyl-1,2-oxazole]",herbicidal activity,[1]; [19],80%
same,herbicidal activity,[1]; pyroxasulfone solo 15 g ai/ha,85%
same,herbicidal activity,[1]; [20],65%
same,herbicidal activity,[1]; pyroxasulfone solo 45 g ai/ha,85%
same,herbicidal activity,[1]; pyroxasulfone solo 90 g ai/ha,95%
same,herbicidal activity,[1]; pyroxasulfone solo 120 g ai/ha,95%
same,herbicidal activity,[2]; pyroxasulfone solo 10 g ai/ha,80%
same,herbicidal activity,[2]; pyroxasulfone solo 15 g ai/ha,98%
same,herbicidal activity,[3]; pyroxasulfone solo 10 g ai/ha,0%
same,herbicidal activity,[3]; pyroxasulfone solo 20 g ai/ha,30%
same,herbicidal activity,[3]; pyroxasulfone solo 30 g ai/ha,50%
same,herbicidal activity,[3]; pyroxasulfone solo 60 g ai/ha,50%
same,herbicidal activity,[3]; pyroxasulfone solo 120 g ai/ha,98%
same,herbicidal activity,[4]; pyroxasulfone solo 10 g ai/ha,95%
same,herbicidal activity,[5]; pyroxasulfone solo 15 g ai/ha,0%
same,herbicidal activity,[5]; pyroxasulfone solo 20 g ai/ha,0%
same,herbicidal activity,[5]; pyroxasulfone solo 30 g ai/ha,20%
same,herbicidal activity,[5]; pyroxasulfone solo 60 g ai/ha,80%
same,herbicidal activity,[5]; pyroxasulfone solo 80 g ai/ha,80%
same,herbicidal activity,[5]; pyroxasulfone solo 120 g ai/ha,90%
same,herbicidal activity,[6]; pyroxasulfone solo 15 g ai/ha,20%
same,herbicidal activity,[6]; pyroxasulfone solo 20 g ai/ha,60%
same,herbicidal activity,[6]; pyroxasulfone solo 30 g ai/ha,85%
same,herbicidal activity,[6]; pyroxasulfone solo 40 g ai/ha,70%
same,herbicidal activity,[6]; pyroxasulfone solo 60 g ai/ha,95%
same,herbicidal activity,[6]; pyroxasulfone solo 80 g ai/ha,75%
same,herbicidal activity,[7]; pyroxasulfone solo 15 g ai/ha,40%
same,herbicidal activity,[7]; pyroxasulfone solo 60 g ai/ha,90%
same,herbicidal activity,[8]; pyroxasulfone solo 10 g ai/ha,50%
same,herbicidal activity,[8]; pyroxasulfone solo 20 g ai/ha,90%
same,herbicidal activity,[9]; [19],55%
same,herbicidal activity,[9]; pyroxasulfone solo 15 g ai/ha,70%
same,herbicidal activity,[9]; [20],55%
same,herbicidal activity,[10]; [19],50%
same,herbicidal activity,[10]; [20],50%
same,herbicidal activity,[11]; pyroxasulfone solo 30 g ai/ha,75%
same,herbicidal activity,[11]; pyroxasulfone solo 40 g ai/ha,75%
same,herbicidal activity,[12]; pyroxasulfone solo 10 g ai/ha,60%
same,herbicidal activity,[12]; pyroxasulfone solo 15 g ai/ha,65%
same,herbicidal activity,[12]; pyroxasulfone solo 20 g ai/ha,75%
same,herbicidal activity,[12]; pyroxasulfone solo 30 g ai/ha,80%
same,herbicidal activity,[12]; pyroxasulfone solo 40 g ai/ha,80%
same,herbicidal activity,[12]; pyroxasulfone solo 60 g ai/ha,95%
same,herbicidal activity,[13]; [19],70%
same,herbicidal activity,[14]; [19],0%
same,herbicidal activity,[14]; pyroxasulfone solo 15 g ai/ha,40%
same,herbicidal activity,[14]; [20],0%
same,herbicidal activity,[14]; pyroxasulfone solo 45 g ai/ha,45%
same,herbicidal activity,[14]; pyroxasulfone solo 60 g ai/ha,80%
same,herbicidal activity,[15]; pyroxasulfone solo 45 g ai/ha,80%
same,herbicidal activity,[16]; pyroxasulfone solo 45 g ai/ha,25%
same,herbicidal activity,[17]; pyroxasulfone solo 10 g ai/ha,30%
same,herbicidal activity,[17]; pyroxasulfone solo 15 g ai/ha,0%
same,herbicidal activity,[17]; pyroxasulfone solo 20 g ai/ha,70%
same,herbicidal activity,[17]; pyroxasulfone solo 80 g ai/ha,98%
same,herbicidal activity,[18]; pyroxasulfone solo 10 g ai/ha,75%
same,herbicidal activity,[18]; pyroxasulfone solo 15 g ai/ha,98%
same,herbicidal activity,[18]; pyroxasulfone solo 30 g ai/ha,98%
